In patent publication US10071110B2, “Phosphonate compounds” (priority 1999, dated 2018):
Read-outs that look alike come from different tables or passages of the source.

Legend:
[1] = in vitro; conditions: human
[2] = in vitro; conditions: African green monkey
[3] = Cytotoxicity of test compounds in vitro, visual estimate of 50% reduction in cell number; conditions: human, MRC-5 human lung fibroblast cells
[4] = test system: MRC-5 human lung fibroblast cells; test: as above; conditions: MRC-5 cells
[5] = Cytotoxicity in CEM cells (CC50); assay type: cell-based; conditions: human; CEM cells (Table 1)
[6] = test system: HSV-1; test: HSV-1 antiviral assay, HSV DNA quantified by nucleic acid hybridization in MRC-5 cells; assay type: cell-based; conditions: CC50/EC50 (Table 7)
[7] = test system: Human cytomegalovirus (HCMV); test: HCMV antiviral assay, HCMV DNA quantified by DNA hybridization in MRC-5 cells; assay type: cell-based; conditions: for Selectivity Index: CC50/EC50, Human CMV in MRC-5 (Table 2)
[8] = test system: postmenopausal women; conditions: oral 0.1 to 100 mg/kg/day, two to three years, vs placebo
[9] = test system: HIV-1; conditions: Human immunodeficiency virus 1, 72 h, read-out: EC50, in HIV-1 plaque reduction assay
[10] = test system: HT4-6C cells; test: Cytotoxicity by the method of Hostetler et al. (HIV study); conditions: Table 6
[11] = test system: Calvarial cells; test: Dexamethasone-induced apoptosis in calvarial cells, trypan blue; assay type: cell-based, mice; conditions: pretreatment at 10^−8 or greater for 1 hour, then 6 hours 10^−4 dexamethasone
[12] = test system: ovariectomized rats; conditions: subcutaneous 0 to 8 mg/kg/day, four to twelve weeks, vs ovariectomized controls
[13] = test system: MLO-Y4 osteocytic cells; conditions: at 10^−8 to 10^−5 M; 1 hour pretreatment, then 6 hours 10^−4 M dexamethasone
[14] = test system: patients with steroid-induced osteoporosis; test: Stimulation of bone formation in humans with steroid-induced osteoporosis; assay type: in vivo, human; conditions: oral 0.1 to 100 mg/kg/day, one month to one year, vs placebo

## Nc1ccn(C[C@H]2COP(=O)(O)CO2)c(=O)n1 [cCDV, cyclic cidofovir]
[1]
  CC50: > 100 µM
[2]
  CC50: > 100 µM
[3]
  CC50 at 5 days: > 1 mM
[4]; as in Example 17 (Table 7)
  CC50: > 1000 µM
[5]
  CC50: > 1000 µM

## CCCCCCCCCCCCCCCCCCOCCOP1(=O)COC(Cn2ccc(N)nc2=O)CO1 (stereo not drawn) [1-O-octadecylethanediol-2-cCDV]
[6]
  Selectivity Index: 40,000
[7]
  Selectivity Index: 1 × 10^6

## CCCCCCCCCCCCCCCCCCOCCCOP(=O)(O)C(O)(CCCN)P(=O)(O)O (stereo not drawn) [1-O-octadecyloxypropyl alendronate, 1-O-octadecyloxypropyl-alendronate]
[8]
  fractures: fewer fractures
  rate of reduction in bone density: lesser rate of reduction in bone density than the placebo group

## CCCCCCCCCCCCCCCCOP1(=O)COC(Cn2ccc(N)nc2=O)CO1 (stereo not drawn) [Hexadecyl-cCDV, hexadecyl-cCDV]
[7]
  Selectivity Index: 163

## Nc1ccn(C[C@@H](CO)OCP(=O)(O)O)c(=O)n1 [CDV, cidofovir]
[1]
  CC50: 89.8 µM
[2]
  CC50: > 100 µM
[3]
  CC50 at 5 days: > 1 mM
[4]; as in Example 17 (Table 7)
  CC50: > 1000 µM
[5]
  CC50: 857 µM

## CCCCCCCCCCCCCCCCCCOCCOP(=O)(O)COC(CO)Cn1ccc(N)nc1=O (stereo not drawn) [1-O-octadecylethanediol-2-CDV]
[6]
  Selectivity Index: 105,000

## CCCCCCCCCCCCCCCCCCOCCCOP1(=O)COC(Cn2ccc(N)nc2=O)CO1 (stereo not drawn) [1-O-octadecylpropanediol-3-cCDV]
[6]
  Selectivity Index: 970
[7]
  Selectivity Index: 1 × 10^6

## Cc1cn([C@H]2C[C@H](N=[N+]=[N-])[C@@H](CO)O2)c(=O)[nH]c1=O [AZT, zidovudine]
[9]
  EC50: 7 nM

## hexadecyloxypropyl-adefovir [HDP-ADV]
[4]; 5 days (Table 2)
  CC50: 6.5 µM
[10]
  CC50: 6.5 µM
[7]; Human CMV replication in MRC-5 human lung fibroblasts, DNA reduction (Table 2), read-out: EC50
  EC50: 100 nM
[7]; preliminary experiments (Table 1), MRC-5 cells, 5 days, read-out: HCMV EC50
  EC50: 10 nM

## CCCCCCCCCCCCCCCCOCCCOP(=O)(O)C(O)(CCCN)P(=O)(O)O (stereo not drawn) [HDP-alendronate, 1-O-Hexadececylpropanediol-3-alendronate]
[11]
  effect on dexamethasone-induced increase in % dead cells: abolished the dexamethasone-induced increase in % dead cells
[12]
  bone mass loss (ash weight of the femora): less bone mass loss than the ovariectomized controls
[13]
  effect on dexamethasone-induced apoptosis (percentage of dead cells): inhibits dexamethasone-induced apoptosis

## CCCCCCCCCCCCCCCCOCCCOP(=O)(O)CO[C@H](CO)Cn1ccc(N)nc1=O [HDP-CDV]
[7]
  Selectivity Index: 5 × 10^6

## 1-O-octadecyloxypropyl-amino-olpadronate
[14]
  bone density: bone density is increased
  fractures: fractures are decreased

## CCCCCCCCCCCCCCCCCCOCCCOP(=O)(O)CO[C@H](CO)Cn1ccc(N)nc1=O [1-O-octadecylpropanediol-3-CDV]
[7]
  Selectivity Index: 1 × 10^6
